{"source": "patent US10022421B2", "about": "“Treatment of primary and metastatic carcinoma” (Spectrum Pharmaceuticals Inc., priority 2012, dated 2018)", "key": {"[1]": {"tested_on": "progressive or recurrent carcinoma", "assay": "Open label, single arm, dose escalation study of IRL-1620 in combination with docetaxel: anti-tumor activity", "type": "in vivo, human", "source_text": "Patient characteristics were as follows.\nCT or MRI scans are used to assess the patient's tumor size. A series of dynamic contrast enhancer pattern MRI scans are used to measure any increases in blood flow induced by IRL 1620."}, "[2]": {"tested_on": "blood flow in tumor and non-tumor regions", "assay": "H2^15O PET Blood Flow scans after IRL-1620", "type": "in vivo, human", "conditions": "patients, PET blood flow scans on Day 8"}, "[3]": {"conditions": "30 patients, IRL-1620 with docetaxel"}, "[4]": {"conditions": "previously docetaxel treated prostate cancer patient"}}, "note": "Numbered stars: 1 amine (or outer) side, 2 acyl side, 3 side chain; on linkers, the order of the positions; unused ones are H or OH. Ends that are not written are not given here. Suc = O=C(CCC(=O)[*:2])[*:1]"}
{"substance": "N-Succunyl-[Glu^9, Ala^11,15] Endothelin-1 (8-21) (Suc-DEEAVYFAHLDIIW) [IRL-1620, ETB receptor agonist]", "values": [{"measurement": "time on study of patients with prolonged clinical benefit", "setting": "[1]; 4 cases, IRL-1620 with docetaxel", "value": "20-74 weeks"}, {"measurement": "cases of prolonged clinical benefit", "setting": "[1]; [3]", "value": 4, "unit": "cases"}, {"measurement": "cases of stable disease", "setting": "[1]; [3]", "value": 5, "unit": "cases"}, {"measurement": "prolonged clinical benefit rate", "setting": "[1]; [3]", "value": 13, "unit": "%"}, {"measurement": "stable disease (SD) rate", "setting": "[1]; [3]", "value": 16, "unit": "%"}, {"measurement": "anti-tumor activity", "setting": "[1]; docetaxel-pretreated patients", "value": "Anti-tumor activity was seen"}, {"measurement": "time to complete regression of lung metastasis", "setting": "[1]; one patient with cholangiocarcinoma", "value": "≤ 3", "unit": "months"}, {"measurement": "time on study before progressing", "setting": "[1]; one patient with cholangiocarcinoma, complete regression of lung metastasis", "value": 41, "unit": "weeks"}, {"measurement": "discontinuation of the study due to disease progression", "setting": "[1]; patients, IRL-1620 with docetaxel", "value": 84, "unit": "%"}, {"measurement": "PSA response", "setting": "[1]; [4]", "value": "PSA response"}, {"measurement": "change in metastatic prostate cancer", "setting": "[1]; [4]", "value": "measurable decrease"}, {"measurement": "changes in blood flow", "setting": "[2]", "value": "did not result in any measurable changes"}]}
